Results from patent publication US11939314B2, “Quinolin-2-one derivatives” (MERCK PATENT GMBH, priority 2016, dated 2024).

Tests used:
c-Kit(V654A) = molecular target: T1, c-Kit(V654A) (Homo sapiens, UniProt P10721, V654A); assay: c-Kit(V654A) assay; assay type: biochemical; details: recombinant human c-Kit aa 544-end, 200 μM ATP, 1.4E-06 means 1.4×10^−6, read-out: Inhibition (IC50) of c-KIT (V654A)
T1 construct: amino acids 544-end containing the V654A mutation; GST (N)
Outline: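 Radiometric filter-binding read-out: substrate 33P incorporation counted by scintillation after P30 filtermat washes in 75 mM phosphoric acid and methanol. Enzyme: N-GST recombinant human c-Kit aa 544-end carrying V654A.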

PDGFRalpha(V561D) = molecular target: T2, PDGFRalpha(V561D) (Homo sapiens, UniProt P16234, V561D); assay: PDGFRalpha(V561D) assay; assay type: biochemical; details: recombinant human PDGFRalpha aa 550-end, 200 μM ATP, 1.4E-06 means 1.4×10^−6, read-out: Inhibition (IC50) of PDGFRα (V561D)
T2 construct: recombinant human PDGFRalpha, amino acids 550end containing the V561 D mutation; 6His (N)
T2 sequence (P16234 550-1089 V561D): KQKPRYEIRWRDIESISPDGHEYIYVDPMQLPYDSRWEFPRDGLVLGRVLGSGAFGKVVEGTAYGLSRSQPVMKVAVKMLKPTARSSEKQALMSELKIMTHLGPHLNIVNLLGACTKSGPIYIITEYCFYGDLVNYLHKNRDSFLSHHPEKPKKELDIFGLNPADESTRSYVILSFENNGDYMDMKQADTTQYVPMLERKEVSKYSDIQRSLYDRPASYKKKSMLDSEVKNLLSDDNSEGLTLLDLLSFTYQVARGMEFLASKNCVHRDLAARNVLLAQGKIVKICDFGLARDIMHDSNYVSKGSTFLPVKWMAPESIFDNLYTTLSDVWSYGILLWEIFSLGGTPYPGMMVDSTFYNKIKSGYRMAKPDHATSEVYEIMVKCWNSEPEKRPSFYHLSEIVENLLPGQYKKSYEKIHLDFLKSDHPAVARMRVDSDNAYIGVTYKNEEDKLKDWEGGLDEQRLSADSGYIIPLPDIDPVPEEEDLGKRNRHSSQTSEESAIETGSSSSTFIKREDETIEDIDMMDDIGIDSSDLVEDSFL
Outline: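 Radiometric filter-binding assay: substrate phosphorylation by recombinant N-His-tagged human PDGFRα 550-end V561D was quenched with 3% phosphoric acid after 40 min at room temperature, then counted.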

T1 sequence (P10721 544-976 V654A): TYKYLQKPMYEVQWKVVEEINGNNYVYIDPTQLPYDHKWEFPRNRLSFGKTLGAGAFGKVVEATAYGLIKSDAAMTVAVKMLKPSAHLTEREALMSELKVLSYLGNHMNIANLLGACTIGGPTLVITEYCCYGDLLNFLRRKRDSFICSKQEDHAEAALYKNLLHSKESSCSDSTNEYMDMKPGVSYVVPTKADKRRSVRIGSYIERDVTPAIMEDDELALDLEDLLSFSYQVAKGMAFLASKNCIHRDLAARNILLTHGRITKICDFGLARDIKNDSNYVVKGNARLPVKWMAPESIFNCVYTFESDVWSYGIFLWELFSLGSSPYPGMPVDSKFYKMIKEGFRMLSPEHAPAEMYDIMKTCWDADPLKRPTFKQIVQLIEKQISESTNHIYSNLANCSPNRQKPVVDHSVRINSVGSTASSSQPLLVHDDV

SMILES | IC50 (c-Kit(V654A)) [nM] | IC50 (PDGFRalpha(V561D)) [nM]
CN1CCC(CCOc2ccc(-n3cc(-c4cc5cc(F)c(F)cc5[nH]c4=O)nn3)cc2)CC1 [A166, 6,7-difluoro-3-(1-{4-[2-(1-methyl-piperidin-4-yl)-ethoxy]-phenyl}-1H-[1,2,3]triazol-4-yl)-1H-quinolin-2-one] | 8 | 43
O=C(c1ccc(-n2cc(-c3cc4cc(F)ccc4[nH]c3=O)nn2)cc1)N1CC2(COC2)C1 [A235, 6-fluoro-3-{1-[4-(2-oxa-6-aza-spiro[3.3]heptane-6-carbonyl)-phenyl]-1H-[1,2,3]triazol-4-yl}-1H-quinolin-2-one] | 42 | 140
O=c1[nH]c2ccc(F)cc2cc1-c1cn(-c2cccc(OCCN3CCOCC3)c2)nn1 [A94a, 6-fluoro-3-{1-[3-(2-morpholin-4-yl-ethoxy)-phenyl]-1H-[1,2,3]triazol-4-yl}-1H-quinolin-2-one] | 60 | 54
CN(C(=O)[C@H]1CCCO1)c1ccc(-n2cc(-c3cc4cc(F)ccc4[nH]c3=O)nn2)cc1 [A343, (R)-tetrahydro-furan-2-carboxylic acid {4-[4-(6-fluoro-2-oxo-1,2-dihydro-quinolin-3-yl)-[1,2,3]triazol-1-yl]-phenyl}-methyl-amide] | 9 | 85
CN1CCN(C(=O)c2ccc(-n3cc(-c4cc5ccc(F)cc5[nH]c4=O)nn3)cc2)CC1 [A118, 7-fluoro-3-{1-[4-(4-methyl-piperazine-1-carbonyl)-phenyl]-1H-[1,2,3]triazol-4-yl}-1H-quinolin-2-one] | 16 | 5
O=C(c1ccc(-n2cc(-c3cc4cc(Cl)ccc4[nH]c3=O)nn2)cc1)N1CCN(C2COC2)CC1 [A250, 6-chloro-3-{1-[4-(4-oxetan-3-yl-piperazine-1-carbonyl)-phenyl]-1H-[1,2,3]triazol-4-yl}-1H-quinolin-2-one] | 40 | 76
O=C1COCCN1c1ccc(-n2cc(-c3cc4ccccc4[nH]c3=O)nn2)cc1 [A25, 3-{1-[4-(3-oxo-morpholin-4-yl)-phenyl]-1H-[1,2,3]triazol-4-yl}-1H-quinolin-2-one] | 15 | 3
CN1CCC(CNC(=O)c2ccc(-n3cc(-c4cc5ccccc5[nH]c4=O)nn3)cc2)CC1 [A15, N-(1-methyl-piperidin-4-ylmethyl)-4-[4-(2-oxo-1,2-dihydro-quinolin-3-yl)-[1,2,3]triazol-1-yl]-benzamide] | 49 | 47
O=C(c1ccc(-n2cc(-c3cc4cccnc4[nH]c3=O)nn2)cc1)N1CCOCC1 [A47, 3-{1-[4-(morpholine-4-carbonyl)-phenyl]-1H-[1,2,3]triazol-4-yl}-1H-[1,8]naphthyridin-2-one] | 24 | 7
CC(=O)N1C[C@@H]2[C@H](C1)[C@H]2NC(=O)c1ccc(-n2cc(-c3cc4cc(F)ccc4[nH]c3=O)nn2)cc1 [A240, N-(3-acetyl-3-aza-bicyclo[3.1.0]hex-6-yl)-4-[4-(6-fluoro-2-oxo-1,2-dihydro-quinolin-3-yl)-[1,2,3]triazol-1-yl]-benzamide] | 130 | 250
O=C(c1cccc(-n2cc(-c3cc4cc(F)ccc4[nH]c3=O)nn2)c1)N1CCNCC1 [A125, 6-fluoro-3-{1-[3-(piperazine-1-carbonyl)-phenyl]-1H-[1,2,3]triazol-4-yl}-1H-quinolin-2-one] | 34 | 6
CC(=O)OC1CCN(C(=O)c2ccc(-n3cc(-c4cc5cc(F)ccc5[nH]c4=O)nn3)cc2)CC1 [A102, acetic acid 1-{4-[4-(6-fluoro-2-oxo-1,2-dihydro-quinolin-3-yl)-[1,2,3]triazol-1-yl]-benzoyl}-piperidin-4-yl ester] | 11 | 48
CN(C)C[C@H]1CCN(C(=O)c2ccc(-n3cc(-c4cc5cc(F)ccc5[nH]c4=O)nn3)cc2)C1 [A334, 3-{1-[4-((R)-3-dimethylaminomethyl-pyrrolidine-1-carbonyl)-phenyl]-1H-[1,2,3]triazol-4-yl}-6-fluoro-1H-quinolin-2-one] | 15 | 41
CN1CCN(C(=O)c2ccc(-n3cc(-c4cc5cc(F)cnc5[nH]c4=O)nn3)cc2)CC1 [A67, 6-fluoro-3-{1-[4-(4-methyl-piperazine-1-carbonyl)-phenyl]-1H-[1,2,3]triazol-4-yl}-1H-[1,8]naphthyridin-2-one] | 24 | 4
O=C(c1ccc(-n2cc(-c3cc4cc(F)ccc4[nH]c3=O)nn2)cc1)N1CCOC[C@@H]1CO [A216, 6-fluoro-3-{1-[4-((S)-3-hydroxymethyl-morpholine-4-carbonyl)-phenyl]-1H-[1,2,3]triazol-4-yl}-1H-quinolin-2-one] | 52 | 29
O=C(c1ccc(-n2cc(-c3cc4cc(F)ccc4[nH]c3=O)nn2)cc1)N1CC[C@@H](F)C1 [A269, 6-fluoro-3-{1-[4-((R)-3-fluoro-pyrrolidine-1-carbonyl)-phenyl]-1H-[1,2,3]triazol-4-yl}-1H-quinolin-2-one] | 31 | 1.5
CN1CCN(C(=O)c2ccc(-n3cc(-c4cc5cc(Cl)ccc5[nH]c4=O)nn3)cc2)CC1=O [A96, 6-chloro-3-{1-[4-(4-methyl-3-oxo-piperazine-1-carbonyl)-phenyl]-1H-[1,2,3]triazol-4-yl}-1H-quinolin-2-one] | 5.2 | 0.33
COC[C@@H]1CCN(C(=O)c2ccc(-n3cc(-c4cc5cc(F)c(F)cc5[nH]c4=O)nn3)cc2)C1 [A200, 6,7-difluoro-3-{1-[4-((R)-3-methoxymethyl-pyrrolidine-1-carbonyl)-phenyl]-1H-[1,2,3]triazol-4-yl}-1H-quinolin-2-one] | 180 | 140
O=C1OCCN1c1ccc(-n2cc(-c3cc4cc(F)ccc4[nH]c3=O)nn2)cc1 [A98, 6-fluoro-3-{1-[4-(2-oxo-oxazolidin-3-yl)-phenyl]-1H-[1,2,3]triazol-4-yl}-1H-quinolin-2-one] | 180 | 75
CN(C)C[C@@H]1CCCN1C(=O)c1ccc(-n2cc(-c3cc4cc(Cl)ccc4[nH]c3=O)nn2)cc1 [A318, 6-chloro-3-{1-[4-((S)-2-dimethylaminomethyl-pyrrolidine-1-carbonyl)-phenyl]-1H-[1,2,3]triazol-4-yl}-1H-quinolin-2-one] | 20 | 17
O=C(NC1CCNCC1)c1ccc(-n2cc(-c3cc4cccnc4[nH]c3=O)nn2)cc1 [A51, 4-[4-(2-oxo-1,2-dihydro-[1,8]naphthyridin-3-yl)-[1,2,3]triazol-1-yl]-N-piperidin-4-yl-benzamide] | 91 | 22
COCCOC[C@H]1CCN(C(=O)c2ccc(-n3cc(-c4cc5cc(F)ccc5[nH]c4=O)nn3)cc2)C1 [A236, 6-fluoro-3-(1-{4-[(S)-3-(2-methoxy-ethoxymethyl)-pyrrolidine-1-carbonyl]-phenyl}-1H-[1,2,3]triazol-4-yl)-1H-quinolin-2-one] | 53 | 560
COCCO[C@H]1CCN(C(=O)c2ccc(-n3cc(-c4cc5cc(F)ccc5[nH]c4=O)nn3)cc2)C1 [A251, 6-fluoro-3-(1-{4-[(S)-3-(2-methoxy-ethoxy)-pyrrolidine-1-carbonyl]-phenyl}-1H-[1,2,3]triazol-4-yl)-1H-quinolin-2-one] | 160 | 400
